Structures are written as SMILES.

Assay [1] relates to LDH-B (lactate dehydrogenase B). Kind of assay: LDH-B protein expression (immunofluorescence). Format: cell-based, human. To be noted: HCT-116 and HT-29; 2.5 mM, 24 hours. As for the experimental part: Human colorectal cancer cell lines (HCT-116 and HT-29) were treated with 2.5 mM calcium lactate and cultured for 24 hours. The cultured cancer cell lines were immobilized with 4% paraformaldehyde and treated with an anti-rabbit LDHB antibody for 15 hours. Then, the cancer cell lines were washed with PBS and treated with a secondary antibody conjugated with biotin and then reacted at room temperature for 2 hours. Then, the cancer cell lines were treated with streptavidine conjugated with FITC to perform fluorescence staining and then photographed with a fluorescence microscope (FIG. 11a-11c). In this case, cancer cell lines cultured under normoxia condition (N-control) or hypoxia condition (H-control) were used as control groups, and a nucleus of each cell was stained using DAPI. Further, the photos were analyzed using the Xenogen In Vivo Imaging System 100 series and Living imaging software (Xenogen).

Assay [2] deals with human melanoma cell lines (SKMEL-02 and SKMEL-28). Briefly: Colony-forming ability of melanoma cell lines in solid medium. Format: cell-based. As for the experimental part:
(§1) Firstly, human colorectal cancer cell lines (HCT-116, HT-29, and DLD-1) were inoculated into solid mediums including various concentrations (0 mM, 0.5 mM, 1.5 mM, or 2.5 mM) of calcium lactate and cultured for 10 days. After the completion of the culture, the cells were immobilized and stained with hematoxylin. Then, the number of cancer cells formed into colonies was counted (FIG. 23).
Then, using the same method as described above, human melanoma cell lines (SKMEL-02 and SKMEL-28) were inoculated into solid mediums including various concentrations (1 mM, 2.5 mM, or 5 mM) of calcium lactate and culture was performed, and the number of cancer cells formed into colonies were counted (FIGS. 24a and 24b).

Assay [3] concerns PDH (pyruvate dehydrogenase). Briefly: PDH protein expression (immunofluorescence). Format: cell-based, human. To be noted: HCT-116 and HT-29; 2.5 mM, 24 hours. The protocol: After the same method as that of Example 6-1 except that an anti-rabbit PDH antibody was used instead of the anti-rabbit LDHB antibody was performed, protein expression levels of PDH in human colorectal cancer cell lines (HCT-116 and HT-29) treated with calcium lactate were measured (FIG. 13).

A further assay has as its system cancer cell lines. Briefly: α-KG level in cancer cells (α-Ketoglutarate assay kit). Format: cell-based. To be noted: normal medium or glutamine-free medium; 2.5 mM, 24 hours. As for the experimental part: Cancer cell lines with the cell number of 5×10^5 cells cultured in a normal medium or a glutamine-free medium were treated with 2.5 mM calcium lactate for 24 hours and the cells were disrupted by ultrasonication and filtered using a 10 kDa filter so as to obtain filtrate. The obtained filtrate was applied to an α-Ketoglutarate assay kit (BioVision, Exton, Pa.) to measure the concentration of α-KG included in the filtrate (FIGS. 14a and 14b).

Assay [4] deals with cancer cell. Kind of assay: Dissociation of metal lactate salts to lactate in a cancer cell. Format: cell-based.
Assay [5] relates to human colorectal cancer cell lines (HCT-116, HT-29, and DLD-1). Kind of assay: Colony-forming ability of colorectal cancer cell lines in solid medium. Format: cell-based. To be noted: HCT-116, HT-29, DLD-1; with increasing concentration (0.5, 1.5, 2.5 mM), 10 days. As for the experimental part: as §1
Assay [6] has as its system melanoma cell lines (SKMEL-02 and SKMEL-28). Briefly: Cell migration of melanoma cell lines. Format: cell-based. To be noted: 2.5 mM, 24 hours after insert removal, vs untreated. As for the experimental part: A colorectal cancer cell line HCT-116 with the cell number of 4×10^5 cells was inoculated into a culture container at the center of which an ibidi culture insert having a thickness of 500 μm was placed, and treated with 2.5 mM calcium lactate and then cultured for 24 hours. Then, the insert was removed and further cultured for 12 hours to analyze migration of the cancer cells to a site where the insert was removed using a JuLi Br, Live cell analyzer (NanoEnTek Inc., South Korea) (FIG. 18). In this case, a colorectal cancer cell line cultured without treating with calcium lactate was used as a control group.
Using the same method as Example 8-1, with melanoma cell lines (SKMEL-02 and SKMEL-28) instead of the colorectal cancer cell line and further cultured for 24 hours after removal of the insert was performed, the effect of calcium lactate on migration of the melanoma cell lines was examined (FIG. 20).

Assay [7] concerns cancer cell. Kind of assay: Comparison of lactate delivery efficiency to a cancer cell. To be noted: compared with sodium lactate and potassium lactate. Format: cell-based.
The test system of assay [8] is human colorectal cancer stem cell line. Briefly: Conformational change of sphere of colorectal cancer stem cell line. Format: cell-based. To be noted: vs DMSO control. The protocol: A human colorectal cancer stem cell line was inoculated into a stem cell culture medium (medium including 1% penicillin/streptomycin and 50 times B27 and including a DMEM medium and an F12 medium mixed at 1:1) and cultured at 37° C. with 5% CO2. The cultured colorectal cancer stem cell line was treated with calcium lactate and then, it was checked whether or not there is the conformational change of a sphere formed by the stem cells (FIG. 22). In this case, a cancer cell treated with DMSO instead of calcium lactate was used as a control group.

Assay [9] has as its system human kidney cancer cell line (Caki-1). Kind of assay: Colony-forming ability, anticancer drug in combination with calcium lactate (6-well plates). Format: cell-based. The conditions noted are these: 2.5 mM calcium lactate alone, vs control. The protocol:
Human kidney cancer cell line (Caki-1) with the cell number of 1×10^3 cells were seeded into an RPMI1640 medium in each of 6-well plates. After one day, the medium was replaced with fresh medium and the cells were treated with 0.3 nM, 0.5 nM, and 1 nM Everolimus alone or treated with various concentrations (0.3 nM, 0.5 nM, and 1 nM) of Everolimus in combination with 2.5 mM calcium lactate. Then, the colony-forming abilities of the cells were compared. In this case, a human kidney cancer cell line (Caki-1) untreated with any drug was used as a control group (FIGS. 53a and 53b).

Take `CC(O)C(=O)[O-].CC(O)C(=O)[O-].[Ca+2]` (stereo not drawn) [calcium lactate]: the “protein expression levels of LDH-B” value in assay [1] is given as “sharply increased”. In addition, the number of colonies result in assay [2] (SKMEL-02, 5 mM (untreated 105 to 168)) is recorded as “about 49 colonies”; in assay [2] (SKMEL-02 and SKMEL-28, with increasing concentration (1, 2.5, 5 mM)), “decreased”; in assay [2] (SKMEL-28, 5 mM) it was “colony was not formed”; in [5], “decreased”. In addition, in assay [3], the “protein expression levels of PDH” value was “sharply increased”. Also, the “α-KG levels in the cells” value in the assay on cancer cell lines was “sharply increased”. Besides, the “dissociation to lactate in a cancer cell” value in the assay with cancer cell [4] is recorded as “can be dissociated to lactate”. Moreover, in assay [6], the “cell migration (metastatic capacity)” value is “relatively low levels of metastasis”. In addition, the “lactate delivery efficiency to a cancer cell” value in the assay with cancer cell [7] is “highest lactate delivery efficiency”. The “conformation of the sphere” value in assay [8] is on record as “destructed”. For the same compound, in assay [9], the colony-forming ability result was “suppressed”.

The record behind these values is patent publication US11413261B2, “Pharmaceutical composition for treating cancer comprising lactate metal salt” (METIMEDI PHARMACEUTICALS CO., LTD, priority 2014, dated 2022).
